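Results reflect a 48-hour exposure of cells in 96-well plates to compound at five concentrations. TGI marks complete inhibition of growth.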
Assays:
Test in all cases: NCI-60 cell line screen, 48 h
LXFL 529 NSCLC = tested on: LXFL 529 NSCLC
KM12 colon = tested on: KM12 colon
COLO 205 colon = tested on: COLO 205 colon
HCC-2998 colon = tested on: HCC-2998 colon
786-0 renal = tested on: 786-0 renal
OVCAR-5 ovarian = tested on: OVCAR-5 ovarian
HCT-15 colon = tested on: HCT-15 colon
DMS 273 small cell lung = tested on: DMS 273 small cell lung
LOX IMVI melanoma = tested on: LOX IMVI melanoma
DLD-1 colon = tested on: DLD-1 colon
HT29 colon = tested on: HT29 colon
SNB-75 CNS = tested on: SNB-75 CNS
HCT-116 colon = tested on: HCT-116 colon
A498 renal = tested on: A498 renal
A549 NSCLC = tested on: A549 NSCLC
SK-MEL-5 melanoma = tested on: SK-MEL-5 melanoma
SF-295 CNS = tested on: SF-295 CNS
SK-MEL-28 melanoma = tested on: SK-MEL-28 melanoma
OVCAR-4 ovarian = tested on: OVCAR-4 ovarian
MALME-3M melanoma = tested on: MALME-3M melanoma
ACHN renal = tested on: ACHN renal
SNB-78 CNS = tested on: SNB-78 CNS
K-562 leukemia = tested on: K-562 leukemia
U251 CNS = tested on: U251 CNS
RXF 393 renal = tested on: RXF 393 renal
SW-620 colon = tested on: SW-620 colon
SNB-19 CNS = tested on: SNB-19 CNS
UO-31 renal = tested on: UO-31 renal
SK-MEL-2 melanoma = tested on: SK-MEL-2 melanoma
XF 498 CNS = tested on: XF 498 CNS
HOP-92 NSCLC = tested on: HOP-92 NSCLC
OVCAR-8 ovarian = tested on: OVCAR-8 ovarian
CCRF-CEM leukemia = tested on: CCRF-CEM leukemia
NCI-H460 lung = tested on: NCI-H460 lung
IGROV1 ovarian = tested on: IGROV1 ovarian
TK-10 renal = tested on: TK-10 renal
NCI-H23 lung = tested on: NCI-H23 lung
NCI-H226 lung = tested on: NCI-H226 lung
SF-539 CNS = tested on: SF-539 CNS
M14 melanoma = tested on: M14 melanoma
HOP-18 NSCLC = tested on: HOP-18 NSCLC
EKVX NSCLC = tested on: EKVX NSCLC
MOLT-4 leukemia = tested on: MOLT-4 leukemia
KM20L2 colon = tested on: KM20L2 colon
SN12C renal = tested on: SN12C renal
M19-MEL melanoma = tested on: M19-MEL melanoma
UACC-257 melanoma = tested on: UACC-257 melanoma
HOP-62 NSCLC = tested on: HOP-62 NSCLC
SF-268 CNS = tested on: SF-268 CNS
UACC-62 melanoma = tested on: UACC-62 melanoma
NCI-H522 lung = tested on: NCI-H522 lung
DMS 114 small cell lung = tested on: DMS 114 small cell lung
OVCAR-3 ovarian = tested on: OVCAR-3 ovarian
SK-OV-3 ovarian = tested on: SK-OV-3 ovarian
CAKI-1 renal = tested on: CAKI-1 renal
RPMI-8226 leukemia = tested on: RPMI-8226 leukemia
HL-60(TB) leukemia = tested on: HL-60(TB) leukemia

## COc1ccc2c(c1)[n+](=O)c(C(=O)C/C(=N/NC(=O)c1ccccc1O)C(=O)Nc1ccc(Cl)c(C(F)(F)F)c1)c(C)n2[O-]
LXFL 529 NSCLC
  TGI: > 100 µM
KM12 colon
  TGI: > 100 µM
COLO 205 colon
  TGI: > 100 µM
HCC-2998 colon
  TGI: > 100 µM
786-0 renal
  TGI: > 100 µM
OVCAR-5 ovarian
  TGI: > 100 µM
HCT-15 colon
  TGI: > 100 µM
DMS 273 small cell lung
  TGI: > 100 µM
LOX IMVI melanoma
  TGI: > 100 µM
DLD-1 colon
  TGI: > 100 µM
HT29 colon
  TGI: > 100 µM
SNB-75 CNS
  TGI: > 100 µM
HCT-116 colon
  TGI: > 100 µM
A498 renal
  TGI: > 100 µM
A549 NSCLC
  TGI: > 100 µM
SK-MEL-5 melanoma
  TGI: > 100 µM
SF-295 CNS
  TGI: > 100 µM
SK-MEL-28 melanoma
  TGI: > 100 µM
OVCAR-4 ovarian
  TGI: > 100 µM
MALME-3M melanoma
  TGI: > 100 µM
ACHN renal
  TGI: > 100 µM
SNB-78 CNS
  TGI: > 100 µM
K-562 leukemia
  TGI: > 100 µM
U251 CNS
  TGI: > 100 µM
RXF 393 renal
  TGI: > 100 µM
SW-620 colon
  TGI: > 100 µM
SNB-19 CNS
  TGI: > 100 µM
UO-31 renal
  TGI: 50.5 µM
SK-MEL-2 melanoma
  TGI: > 100 µM
XF 498 CNS
  TGI: > 100 µM
HOP-92 NSCLC
  TGI: > 100 µM
OVCAR-8 ovarian
  TGI: > 100 µM
CCRF-CEM leukemia
  TGI: > 100 µM
NCI-H460 lung
  TGI: > 100 µM
IGROV1 ovarian
  TGI: > 100 µM
TK-10 renal
  TGI: > 100 µM
NCI-H23 lung
  TGI: > 100 µM
NCI-H226 lung
  TGI: > 100 µM
SF-539 CNS
  TGI: > 100 µM
M14 melanoma
  TGI: > 100 µM
HOP-18 NSCLC
  TGI: > 100 µM
EKVX NSCLC
  TGI: > 100 µM
MOLT-4 leukemia
  TGI: > 100 µM
KM20L2 colon
  TGI: > 100 µM
SN12C renal
  TGI: > 100 µM
M19-MEL melanoma
  TGI: > 100 µM
UACC-257 melanoma
  TGI: > 100 µM
HOP-62 NSCLC
  TGI: > 100 µM
SF-268 CNS
  TGI: > 100 µM
UACC-62 melanoma
  TGI: > 100 µM
NCI-H522 lung
  TGI: > 100 µM
DMS 114 small cell lung
  TGI: > 100 µM
OVCAR-3 ovarian
  TGI: 87.1 µM
SK-OV-3 ovarian
  TGI: > 100 µM

## Cn1c(=O)nc2n(-c3cc(Cl)ccc3Cl)c3ccccc3nc-2c1=O
LXFL 529 NSCLC
  TGI: 28.3 µM
KM12 colon
  TGI: 20.1 µM
COLO 205 colon
  TGI: 6.43 µM
HCC-2998 colon
  TGI: 9.32 µM
786-0 renal
  TGI: 34.6 µM
OVCAR-5 ovarian
  TGI: 25.7 µM
HCT-15 colon
  TGI: 15.4 µM
DMS 273 small cell lung
  TGI: 16.2 µM
DLD-1 colon
  TGI: 16.6 µM
HT29 colon
  TGI: 5.47 µM
SNB-75 CNS
  TGI: 24.6 µM
HCT-116 colon
  TGI: 16.2 µM
A498 renal
  TGI: 35.7 µM
A549 NSCLC
  TGI: 21.9 µM
SK-MEL-5 melanoma
  TGI: 4.55 µM
SF-295 CNS
  TGI: 21.2 µM
OVCAR-4 ovarian
  TGI: 17.8 µM
MALME-3M melanoma
  TGI: 12.2 µM
ACHN renal
  TGI: 13.6 µM
CAKI-1 renal
  TGI: 27.8 µM
SNB-78 CNS
  TGI: 31.6 µM
K-562 leukemia
  TGI: > 100 µM
U251 CNS
  TGI: 20.4 µM
RXF 393 renal
  TGI: 34.1 µM
SW-620 colon
  TGI: 6.86 µM
SNB-19 CNS
  TGI: 13.3 µM
UO-31 renal
  TGI: 26.4 µM
SK-MEL-2 melanoma
  TGI: 18.1 µM
XF 498 CNS
  TGI: 18.9 µM
OVCAR-8 ovarian
  TGI: 14.4 µM
CCRF-CEM leukemia
  TGI: 21.3 µM
NCI-H460 lung
  TGI: 13.4 µM
IGROV1 ovarian
  TGI: 29.7 µM
TK-10 renal
  TGI: 30.4 µM
NCI-H23 lung
  TGI: 4.06 µM
NCI-H226 lung
  TGI: 22 µM
SF-539 CNS
  TGI: 19.5 µM
M14 melanoma
  TGI: 15.2 µM
HOP-18 NSCLC
  TGI: 25.3 µM
RPMI-8226 leukemia
  TGI: 33.7 µM
EKVX NSCLC
  TGI: 13 µM
MOLT-4 leukemia
  TGI: 28.6 µM
KM20L2 colon
  TGI: 7.9 µM
SN12C renal
  TGI: 16.7 µM
M19-MEL melanoma
  TGI: 2.85 µM
UACC-257 melanoma
  TGI: 5.2 µM
HOP-62 NSCLC
  TGI: 46.4 µM
SF-268 CNS
  TGI: 30.7 µM
UACC-62 melanoma
  TGI: 3.38 µM
NCI-H522 lung
  TGI: 18.8 µM
DMS 114 small cell lung
  TGI: 4.92 µM
OVCAR-3 ovarian
  TGI: 9.92 µM
SK-OV-3 ovarian
  TGI: 91.9 µM

## CCn1c(=O)nc2n(-c3ccccc3)c3ccccc3nc-2c1=O
LXFL 529 NSCLC
  TGI: > 100 µM
KM12 colon
  TGI: > 100 µM
COLO 205 colon
  TGI: 16 µM
HCC-2998 colon
  TGI: 94 µM
786-0 renal
  TGI: > 100 µM
OVCAR-5 ovarian
  TGI: 66.4 µM
HL-60(TB) leukemia
  TGI: 38.5 µM
HCT-15 colon
  TGI: 65.4 µM
DMS 273 small cell lung
  TGI: 34.7 µM
DLD-1 colon
  TGI: > 100 µM
SNB-75 CNS
  TGI: > 100 µM
A498 renal
  TGI: > 100 µM
A549 NSCLC
  TGI: > 100 µM
SK-MEL-5 melanoma
  TGI: 22.8 µM
SF-295 CNS
  TGI: > 100 µM
SK-MEL-28 melanoma
  TGI: > 100 µM
OVCAR-4 ovarian
  TGI: 25.9 µM
MALME-3M melanoma
  TGI: 31.7 µM
ACHN renal
  TGI: 68.7 µM
CAKI-1 renal
  TGI: > 100 µM
SNB-78 CNS
  TGI: > 100 µM
K-562 leukemia
  TGI: 61.2 µM
U251 CNS
  TGI: 75.2 µM
SW-620 colon
  TGI: 86.5 µM
SNB-19 CNS
  TGI: 76 µM
UO-31 renal
  TGI: > 100 µM
SK-MEL-2 melanoma
  TGI: 76.3 µM
XF 498 CNS
  TGI: 34.5 µM
HOP-92 NSCLC
  TGI: 62.4 µM
OVCAR-8 ovarian
  TGI: 67.9 µM
CCRF-CEM leukemia
  TGI: 72.3 µM
NCI-H460 lung
  TGI: > 100 µM
IGROV1 ovarian
  TGI: 74.2 µM
TK-10 renal
  TGI: > 100 µM
NCI-H23 lung
  TGI: > 100 µM
NCI-H226 lung
  TGI: 63.8 µM
SF-539 CNS
  TGI: 38.8 µM
M14 melanoma
  TGI: 35 µM
HOP-18 NSCLC
  TGI: > 100 µM
RPMI-8226 leukemia
  TGI: > 100 µM
EKVX NSCLC
  TGI: > 100 µM
MOLT-4 leukemia
  TGI: 40.4 µM
KM20L2 colon
  TGI: 85.4 µM
SN12C renal
  TGI: 64.8 µM
M19-MEL melanoma
  TGI: 25.2 µM
UACC-257 melanoma
  TGI: 38.7 µM
HOP-62 NSCLC
  TGI: > 100 µM
SF-268 CNS
  TGI: 85.1 µM
UACC-62 melanoma
  TGI: 31.9 µM
NCI-H522 lung
  TGI: > 100 µM
DMS 114 small cell lung
  TGI: 30.3 µM
OVCAR-3 ovarian
  TGI: 43.1 µM
SK-OV-3 ovarian
  TGI: > 100 µM

Reference: PubChem BioAssay (NCI)
